This note sets out measurements from ChEMBL document CHEMBL1201862, “PubChem BioAssay data set” (2004).

A word on the GI50: it is the concentration at which growth is held to half of that of the control.

Some test systems named below: UACC-62; A549; HL-60; UACC-257; KM12; SK-MEL-2; NCI/ADR-RES; TK-10; M14; ACHN; LOX IMVI; K562; IGROV-1; RPMI-8226; SR; MOLT-4; SF-539; HCC 2998; NCI-H522; DMS-114.
What all share (assay): DTP human tumour cell line panel, 48 h

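Briefly, cells in 96-well plates were exposed to five compound concentrations for 48 h, and endpoints were estimated by linear interpolation. Abbreviation: GI50, concentration required for 50% inhibition of growth.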 Active and inactive are the calls of the source. Cut-off read from the data, not from the text of the source: active = GI50 up to about 1.1 µM and inactive = higher.

On to `c1nc2nc[nH]c(SSc3[nH]cnc4ncnc3-4)c-2n1`, for which the GI50 in the test on UACC-62 is < 0.01 µM (active); in the test on A549, 13.9 µM (inactive); in the test with HL-60 it was 2.14 µM (inactive); with UACC-257, 2.63 µM (inactive); in the test with KM12, 1.06 µM (active); in the test on SK-MEL-2 it was 8.22 µM (inactive). Also, the GI50 with NCI/ADR-RES was 0.217 µM (active); in the test with TK-10 it was < 0.0343 µM (active); with M14, 1.21 µM (inactive); in the test on ACHN, 3.21 µM (inactive); in the test on LOX IMVI, < 0.0441 µM (active); with K562 it was < 0.0472 µM (active). For the same compound, the GI50 in the test on IGROV-1 is > 22.3 µM (inactive).

Consider `CCSc1nc(N)c2c(-c3ccccc3)c3c(nc2n1)CCC3`, for which the GI50 was > 100 µM (inactive) with UACC-62; > 100 µM (inactive) in the test on RPMI-8226; 4.56 µM (inactive) in the test on A549; > 100 µM (inactive) in the test on HL-60; > 100 µM (inactive) with UACC-257; > 100 µM (inactive) with KM12. The GI50 in the test with SR, in the test on MOLT-4, in the test on NCI/ADR-RES, with TK-10, in the test on M14 and with ACHN was > 100 µM (inactive) throughout. The GI50 with SF-539 is 6.53 µM (inactive); with LOX IMVI, > 100 µM (inactive); in the test on K562 it was > 100 µM (inactive); in the test with IGROV-1, > 100 µM (inactive).

As for `CC1CN=C(Nc2cccc(C(F)(F)F)c2)S1` (stereo unspecified), the GI50 with UACC-62 is 97.3 µM (inactive); in the test on RPMI-8226, 23.4 µM (inactive); in the test with HL-60 it was 20.7 µM (inactive); with UACC-257, 52.5 µM (inactive); with KM12, 81.5 µM (inactive); in the test with SR it was 21.7 µM (inactive). Besides, the GI50 is 25.4 µM (inactive) in the test on MOLT-4; 77.6 µM (inactive) in the test on SK-MEL-2; 84.5 µM (inactive) in the test with TK-10; > 100 µM (inactive) with HCC 2998; > 100 µM (inactive) in the test with M14; 42.4 µM (inactive) in the test with NCI-H522. Moreover, the GI50 was > 100 µM (inactive) in the test on ACHN, > 100 µM (inactive) with SF-539, 43.5 µM (inactive) in the test on LOX IMVI and 30.4 µM (inactive) in the test on K562.

With `COc1ccc(N2C(=O)CSC2c2c[nH]c3ccccc23)cc1` (stereo unspecified), the GI50 in the test with UACC-62 was 44.9 µM (inactive); with HL-60, 23.6 µM (inactive); in the test on UACC-257 it was > 100 µM (inactive); in the test on KM12, 28.4 µM (inactive); in the test with SR, 43 µM (inactive); in the test on MOLT-4, 33 µM (inactive). The GI50 with TK-10 is 59.8 µM (inactive); in the test with HCC 2998 it was > 100 µM (inactive); in the test on M14, > 100 µM (inactive); with NCI-H522, 24.5 µM (inactive); in the test with LOX IMVI, 78.9 µM (inactive); in the test with K562, 26.2 µM (inactive). Also, the GI50 with IGROV-1 was > 100 µM (inactive).

`Nc1ncnc2c1sc1nc3ccccc3n12`: the GI50 was 31 µM (inactive) with UACC-62; > 91.4 µM (inactive) with RPMI-8226; > 49.1 µM (inactive) in the test with A549; > 100 µM (inactive) in the test with UACC-257; > 45 µM (inactive) in the test on KM12; 11.8 µM (inactive) with MOLT-4. Further, the GI50 with SK-MEL-2 is > 100 µM (inactive); in the test with NCI/ADR-RES, > 83 µM (inactive); in the test with TK-10 it was > 100 µM (inactive); with HCC 2998, > 44.8 µM (inactive); with M14, > 84.1 µM (inactive); with NCI-H522 it was > 43.2 µM (inactive). For the same compound, the GI50 in the test on ACHN was 57.7 µM (inactive); with SF-539, 20.4 µM (inactive); in the test on LOX IMVI it was 4.13 µM (inactive); with K562 it was > 100 µM (inactive); in the test with IGROV-1 it was 13.4 µM (inactive).

In the case of `S=C(N/N=C(/c1ccccc1)c1ccccn1)Nc1cccc(Cl)c1`, the GI50 with UACC-62 is 0.201 µM (active); with RPMI-8226, < 0.0385 µM (active); with A549 it was 1.55 µM (inactive); in the test with HL-60, < 0.0277 µM (active); in the test with UACC-257, < 0.0475 µM (active); in the test on KM12, 0.414 µM (active). Also, the GI50 in the test with SR was < 0.026 µM (active); with MOLT-4, < 0.0297 µM (active); with SK-MEL-2 it was 0.839 µM (active); with NCI/ADR-RES, 0.0432 µM (active); in the test with TK-10 it was 0.714 µM (active); in the test on HCC 2998 it was 0.748 µM (active). Besides, the 50% growth inhibitory concentration (GI50) with M14 was 0.0596 µM (active); in the test with ACHN, 0.225 µM (active); in the test with SF-539 it was 1.48 µM (inactive).

For `Nc1c(Br)cc2c(c1Br)Cc1cc(Br)ccc1-2`, the GI50 with A549, in the test with UACC-257, with KM12, in the test on SR, in the test on MOLT-4 and in the test on NCI/ADR-RES was > 100 µM (inactive) each time. The GI50 in the test with TK-10, in the test with HCC 2998, in the test on M14, in the test on NCI-H522, in the test on ACHN and in the test on LOX IMVI was > 100 µM (inactive) in each case. For the same compound, in the test on K562, the GI50 was > 100 µM (inactive).

`N=C(N)NS(=O)(=O)c1ccc(Nc2c3ccccc3nc3c(C(=O)N4CCN(CCO)CC4)ccc(Cl)c23)cc1`: the GI50 in the test with UACC-62, in the test with RPMI-8226, with DMS-114, with A549, with HL-60 and with UACC-257 was > 100 µM (inactive) throughout. Also, the GI50 in the test on KM12, in the test with MOLT-4, in the test with SK-MEL-2, with TK-10, in the test with HCC 2998 and in the test with M14 was > 100 µM (inactive) throughout. Also, the GI50 in the test on ACHN, in the test with SF-539, with K562 and in the test with IGROV-1 was > 100 µM (inactive) each time.

In the case of `O=C(N/N=C\C(F)(F)F)c1ccncc1`, the GI50 in the test on UACC-62 was 37.2 µM (inactive); in the test with RPMI-8226, > 100 µM (inactive); in the test with HL-60, > 100 µM (inactive); in the test with UACC-257 it was 49.3 µM (inactive); with KM12, 8.09 µM (inactive); in the test with SR, 35.2 µM (inactive). Also, the GI50 in the test with MOLT-4 is 21.4 µM (inactive); with SK-MEL-2, > 100 µM (inactive); in the test with NCI/ADR-RES it was > 100 µM (inactive); with TK-10, 22.8 µM (inactive); in the test with HCC 2998 it was 18.5 µM (inactive); in the test on M14, 26 µM (inactive). Moreover, the GI50 in the test on LOX IMVI is > 100 µM (inactive); with K562, 7.62 µM (inactive); in the test on IGROV-1 it was 35.2 µM (inactive).

Turning to `O=C1CC(=O)N(c2ccccc2)N1/C(=C/c1ccccc1)c1ccccc1`, the GI50 in the test with UACC-62 was 16.3 µM (inactive); in the test on RPMI-8226, 10.2 µM (inactive); in the test with A549 it was 26.1 µM (inactive); with UACC-257, 24.8 µM (inactive); in the test with KM12, 25.6 µM (inactive); with SR, 12.3 µM (inactive). For the same compound, the GI50 with MOLT-4 is 1.58 µM (inactive); in the test with SK-MEL-2, 23.7 µM (inactive); in the test with NCI/ADR-RES it was 25.5 µM (inactive); in the test on TK-10 it was 21.3 µM (inactive); in the test on HCC 2998 it was 20.1 µM (inactive); in the test with M14, 19 µM (inactive). Further, the GI50 in the test with ACHN was 25.8 µM (inactive); with LOX IMVI, 1.6 µM (inactive); with K562 it was 1.54 µM (inactive); with IGROV-1 it was 15.8 µM (inactive).

As to `Cc1ccc(C(=O)C2CC3(CCC2(O)c2ccc(C)cc2)CC(=O)Nc2ccccc2C3=O)cc1` (stereo unspecified), the GI50 in the test on UACC-62 is > 100 µM (inactive); with A549 it was > 100 µM (inactive); in the test on HL-60, 10.5 µM (inactive); in the test with UACC-257 it was > 100 µM (inactive); in the test with SR, > 100 µM (inactive); in the test on MOLT-4, 4.91 µM (inactive). For the same compound, the GI50 in the test with SK-MEL-2 was > 100 µM (inactive); in the test with NCI/ADR-RES it was > 100 µM (inactive); in the test on TK-10, > 100 µM (inactive); in the test with HCC 2998, > 100 µM (inactive); in the test on M14, 46.5 µM (inactive); in the test with SF-539, > 100 µM (inactive). The GI50 in the test on LOX IMVI and with IGROV-1 was > 100 µM (inactive) throughout.

As to `Cc1cccc(C)c1NC(=S)N/C=C(\C#N)C(N)=O`, the GI50 with UACC-62, in the test with RPMI-8226, in the test on A549, in the test on UACC-257, with KM12 and in the test with MOLT-4 was > 100 µM (inactive) throughout. Further, the GI50 with SK-MEL-2, in the test with NCI/ADR-RES, with TK-10, in the test with M14, in the test with NCI-H522 and in the test with ACHN was > 100 µM (inactive) in each case. The GI50 in the test with SF-539, with LOX IMVI, with K562 and in the test on IGROV-1 was > 100 µM (inactive) in each case.

With `COc1nc(-c2cn(S(=O)(=O)c3ccc(C)cc3)c3ccc(Br)cc23)cc(C(F)(F)F)c1C#N`, the GI50 was 38.8 µM (inactive) in the test with UACC-62; 14.9 µM (inactive) in the test on RPMI-8226; > 100 µM (inactive) in the test on A549; 86.7 µM (inactive) in the test with HL-60; 53.1 µM (inactive) in the test with UACC-257; > 100 µM (inactive) in the test on KM12. The GI50 in the test with MOLT-4 was 31.3 µM (inactive); in the test with SK-MEL-2, 65.6 µM (inactive); in the test with NCI/ADR-RES, 71.8 µM (inactive); in the test on HCC 2998, 85.9 µM (inactive); in the test with NCI-H522 it was 47.9 µM (inactive); with ACHN, 29.1 µM (inactive). Moreover, the GI50 was 34.9 µM (inactive) in the test on SF-539, 23.7 µM (inactive) with LOX IMVI, 27.8 µM (inactive) in the test on K562 and 28.4 µM (inactive) in the test with IGROV-1.
